Results published in ChEMBL document CHEMBL5352408, “Discovery of dehydroandrographolide derivatives with C19 hindered ether as potent anti-ZIKV agents with inhibitory activities to MTase of ZIKV NS5” (Eur J Med Chem, 2022).
Activity calls are given as the source filed them. No cut-off for these calls is given here.

Tests used:
[1] = Cytotoxicity against african green monkey Vero cells incubated for 96 hrs; type: toxicity, cell-based; settings: chlorocebus sabaeus
Zika virus [2] = test: Antiviral activity against ZIKV infected in African green monkey vero cells assessed as reduction in plaque formation incubated for 5 days by crystal violet based assay; type: functional, organism-based; settings: for EC50: 120 h
Zika virus [3] = test: Antiviral activity against ZIKV infected in African green monkey Vero cells assessed as inhibition of ZIKV E protein at 10 uM incubated for 48 hrs by Western blot analysis relative to control; type: functional
Genome polyprotein = Genome polyprotein (Zika virus, UniProt Q32ZE1); test: Inhibition of ZIKV NS5 MTase activity assessed as methyltransferase reaction using capped RNA substrate pre-incubated for 2.5 hrs followed by enzyme addition measured after 1 hrs by luminometer
Chain of Genome polyprotein (Q32ZE1 2517-3419 limits assumed): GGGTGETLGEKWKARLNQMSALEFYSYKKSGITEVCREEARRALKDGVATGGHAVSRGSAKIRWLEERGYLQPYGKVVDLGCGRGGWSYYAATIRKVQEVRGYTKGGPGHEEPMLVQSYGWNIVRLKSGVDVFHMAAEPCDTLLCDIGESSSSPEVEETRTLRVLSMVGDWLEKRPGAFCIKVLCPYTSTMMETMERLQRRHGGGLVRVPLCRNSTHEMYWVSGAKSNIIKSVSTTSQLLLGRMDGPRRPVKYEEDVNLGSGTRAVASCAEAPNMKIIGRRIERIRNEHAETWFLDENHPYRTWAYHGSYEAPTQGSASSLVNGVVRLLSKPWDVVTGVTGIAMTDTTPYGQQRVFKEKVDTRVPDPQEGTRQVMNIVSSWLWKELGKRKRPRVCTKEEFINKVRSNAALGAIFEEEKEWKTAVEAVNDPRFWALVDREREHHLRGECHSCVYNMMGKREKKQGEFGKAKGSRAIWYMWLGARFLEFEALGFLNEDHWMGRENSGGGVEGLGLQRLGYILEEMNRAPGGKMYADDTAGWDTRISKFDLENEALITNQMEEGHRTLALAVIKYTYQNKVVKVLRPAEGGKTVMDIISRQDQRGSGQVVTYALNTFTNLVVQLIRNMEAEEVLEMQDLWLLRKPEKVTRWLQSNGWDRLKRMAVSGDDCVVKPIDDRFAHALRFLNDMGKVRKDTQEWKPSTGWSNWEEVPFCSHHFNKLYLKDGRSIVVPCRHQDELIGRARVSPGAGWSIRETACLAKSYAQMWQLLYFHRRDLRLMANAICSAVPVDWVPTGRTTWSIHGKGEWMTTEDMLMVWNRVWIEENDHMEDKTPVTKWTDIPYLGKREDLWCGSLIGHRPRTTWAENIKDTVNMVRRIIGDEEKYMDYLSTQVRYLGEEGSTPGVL

[4] = biological target: Nonstructural protein 3 (Zika virus) (UniProt A0A024AXB9); test: Inhibition of ZIK virus NS2B-NS3 protease
Chain of Nonstructural protein 3 (Zika virus) (A0A024AXB9 as listed by the source): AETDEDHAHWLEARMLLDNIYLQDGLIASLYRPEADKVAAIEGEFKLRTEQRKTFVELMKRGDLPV

Zika virus [5] = test: Antiviral activity against ZIKV infected in Vero cells assessed as late viral life cycle by measuring reduction in viral RNA reduction at 10 uM treated 12 hrs post infection incubated for 48 hrs by qRT-PCR analysis based time of drug addition assay; type: functional, organism-based
Zika virus [6] = test: Antiviral activity against ZIKV infected in Vero cells assessed as virucidal effect at 10 uM pre-treated with virus for 2 hrs followed by infected with Vero cells for 2 hrs after washout transferred to normal medium measured after 48 hrs of post infection by qRT-PCR analysis based time of drug addition assay; type: functional, organism-based; settings: time 4.0 hrs
Zika virus [7] = test: Antiviral activity against ZIKV infected in Vero cells assessed as late viral life cycle by measuring reduction in viral RNA reduction at 10 uM treated 8 hrs post infection incubated for 48 hrs by qRT-PCR analysis based time of drug addition assay; type: functional, organism-based
Zika virus [8] = test: Antiviral activity against ZIKV infected in Vero cells assessed as late entry stage to late viral life cycle by measuring reduction in viral RNA reduction at 10 uM treated 1 to 2 hrs post infection incubated for 48 hrs by qRT-PCR analysis based time of drug addition assay; type: functional, organism-based
NS5 (Zika virus) = NS5 (Zika virus) (UniProt A0A143MHK7); test: Inhibition of ZIKV RdRP
Chain of NS5 (Zika virus) (A0A143MHK7 as listed by the source): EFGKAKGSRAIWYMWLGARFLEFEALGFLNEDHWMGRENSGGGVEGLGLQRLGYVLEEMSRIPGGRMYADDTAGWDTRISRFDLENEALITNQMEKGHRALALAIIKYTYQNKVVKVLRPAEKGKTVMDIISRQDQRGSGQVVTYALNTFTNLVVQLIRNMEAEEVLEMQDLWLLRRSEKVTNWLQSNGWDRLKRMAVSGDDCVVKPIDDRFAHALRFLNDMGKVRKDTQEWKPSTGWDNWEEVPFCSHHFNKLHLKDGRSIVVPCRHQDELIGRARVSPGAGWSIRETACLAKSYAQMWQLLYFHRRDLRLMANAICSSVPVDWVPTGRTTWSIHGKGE

[9] = Cytotoxicity against human Huh-7 cells incubated for 96 hrs; type: toxicity, cell-based
Zika virus [10] = test: Antiviral activity against ZIKV infected in African green monkey vero cells incubated for 48 hrs by qRT-PCR analysis; type: functional, organism-based
Zika virus [11] = test: Antiviral activity against ZIKV infected in Vero cells assessed as viral infection at 10 uM pre-treated with Vero cells for 2 hrs followed by infected with virus cells for 2 hrs and measured upto 48 hrs in fresh medium by qRT-PCR analysis based time of drug addition assay; type: functional, organism-based; settings: time 4.0 hrs
Zika virus [12] = test: Antiviral activity against ZIKV infected in African green monkey Vero cells assessed as inhibition of ZIKV E protein at 0.4 uM incubated for 48 hrs by Western blot analysis relative to control; type: functional
Zika virus [13] = test: Antiviral activity against ZIKV infected in Vero cells assessed as late viral life cycle by measuring reduction in viral RNA reduction at 10 uM treated 3 to 6 hrs post infection incubated for 48 hrs by qRT-PCR analysis based time of drug addition assay; type: functional, organism-based
Zika virus [14] = test: Antiviral activity against ZIKV infected in Vero cells assessed as inhibition of viral entry at 10 uM Co-treated with virus with Vero cells followed by transferred into fresh medium measured upto 48 hrs by qRT-PCR analysis based time of drug addition assay; type: functional, organism-based; settings: time 4.0 hrs
Zika virus [15] = test: Antiviral activity against ZIKV infected in African green monkey Vero cells incubated for 48 hrs by Western blot analysis relative to control; type: functional, organism-based
Zika virus [16] = test: Antiviral activity against ZIKV infected in human A549 cells incubated for 48 hrs by qRT-PCR; type: functional, organism-based; settings: A549, 48 h
[17] = Cytotoxicity against human A549 cells incubated for 96 hrs; type: toxicity, cell-based
Zika virus [18] = test: Antiviral activity against ZIKV infected in Vero cells assessed as viral RNA reduction at 10 uM treated immediately post infection incubated for 48 hrs by qRT-PCR analysis based time of drug addition assay; type: functional, organism-based
Zika virus [19] = test: Antiviral activity against ZIKV infected in Vero cells assessed as late RNA synthesis to late viral life cycle by measuring reduction in viral RNA reduction at 10 uM treated 10 hrs post infection incubated for 48 hrs by qRT-PCR analysis based time of drug addition assay relative to 8 hrs post-infection; type: functional, organism-based
Zika virus [20] = test: Antiviral activity against ZIKV infected in human Huh-7 cells incubated for 48 hrs by qRT-PCR analysis; type: functional, organism-based; settings: Huh-7, 48 h

With `C=C1CC[C@@H]2[C@](C)(CO)[C@H](O)CC[C@@]2(C)[C@@H]1/C=C/C1=CCOC1=O` the CC50 at 96 h [1] was over 200 µM and the EC50 (Zika virus [2]) was 30.6 µM.

With `C=C1CC[C@H]2[C@@](C)(CCC(=O)[C@@]2(C)COC(c2ccccc2)(c2ccccc2)c2ccccc2)[C@@H]1/C=C/C1=CCOC1=O` the Activity (Zika virus [2]; time 5.0 day) was “inactive”.

In the case of `NC(=O)c1ncn([C@@H]2O[C@H](CO)[C@@H](O)[C@H]2O)n1` [RIBAVIRIN], the inhibition at 10 µM (Zika virus [3]) is reported as 50%.

Molecule `C=C1CC[C@H]2[C@@](C)(CC/C(=N\O)[C@@]2(C)CO[Si](c2ccccc2)(c2ccccc2)C(C)(C)C)[C@@H]1/C=C/C1=CCOC1=O` has a CC50 at 96 h [1] of over 200 µM, an IC50 (Genome polyprotein) of 14.1 µM and an EC50 (Zika virus [2]) of 0.71 µM.

`C=C1CC[C@@H]2[C@](C)(CO)[C@H](O)CC[C@@]2(C)[C@@H]1C/C=C1/C(=O)OC[C@H]1O` [ANDROGRAPHOLIDE] gave a CC50 at 96 h [1] of over 200 µM and an EC50 (Zika virus [2]) of 39.3 µM.

Work on `C=C1CC[C@@H]2[C@](C)(COC(c3ccccc3)(c3ccccc3)c3ccccc3)[C@H](O)CC[C@@]2(C)[C@@H]1/C=C/C1=CCOC1=O` yielded a CC50 at 96 h [1] of over 200 µM, an IC50 (Genome polyprotein) of 38.9 µM and an EC50 (Zika virus [2]) of 6.17 µM.

`C=C1CC[C@H]2[C@@](C)(CC/C(=N\O)[C@@]2(C)COC(c2ccccc2)c2ccccc2)[C@@H]1/C=C/C1=CCOC1=O` showed an IC50 (Genome polyprotein) of 183 µM and an EC50 (Zika virus [2]) of 3.49 µM.

With `C=C1CC[C@H]2[C@@](C)(CC/C(=N\O)[C@@]2(C)COC(c2ccccc2)(c2ccccc2)c2ccccc2)[C@@H]1/C=C/C1=CCOC1=O` the inhibition [4] was “inactive”, the Activity (Zika virus [5]) was “inactive” and the Activity (Zika virus [6]) was “inactive”. The Activity (Zika virus [7]) was “Active”, the CC50 at 96 h [1] was over 200 µM and the Activity (Zika virus [8]) was “Active”. For the same molecule, the inhibition (NS5 (Zika virus)) was “inactive”, the CC50 at 96 h [9] was over 200 µM and the EC50 (Zika virus [10]) was 0.48 µM. For the same molecule, the Activity (Zika virus [11]) was “inactive”, the inhibition at 0.4 µM (Zika virus [12]) was 100% and the Activity (Zika virus [13]) was “Active”. The IC50 (Genome polyprotein) was 18.3 µM, the Activity (Zika virus [14]) was “inactive” and the EC50 (Zika virus [15]) was 0.38 µM. The EC50 (Zika virus [16]) was 0.45 µM, the CC50 at 96 h [17] was over 200 µM and the Activity (Zika virus [18]) was “Active”. The Activity (Zika virus [19]) was “inactive”, the EC50 (Zika virus [20]) was 0.37 µM and the EC50 (Zika virus [2]) was 0.76 µM.

With `Nc1ncnc2c1ncn2[C@@H]1O[C@H](C[C@@H](N)CC[C@H](N)C(=O)O)[C@@H](O)[C@H]1O` [SINEFUNGIN] the IC50 (Genome polyprotein) was 19.2 µM.
